This note sets out measurements from patent publication US11311513B2, “Methods, agents, and compositions for the treatment of acute myeloid leukemia” (UNIVERSITY OF CINCINNATI, priority 2017, dated 2022).

The subject of data set [1] is wild-type mouse BM progenitor cells transduced with MLL-AF9. Nature of the data set: Viability of MLL-AF9-transduced wild-type BM progenitor cells. It counts as cell-based. To be noted: 48 hrs. The protocol: FIG. 5. […] Gene expression levels are shown. […] ChIP-qPCR assay was carried out 48 hrs after drug treatment. Enrichment of STAT3, STAT5, or IgG at the TET1 promoter region and other regions are shown. […] BM progenitor cells of wild-type or Tet1^−/− mice were retrovirally transduced with MLL-AF9. […] Relative cell viabilities are shown. (m) Cre-Tet1f mouse BM progenitor cells were retrovirally transduced with MLL-AF9. […] Relative cell viability is shown. (n-o) THP-1 (n) and MONOMAC-6 (o) cells were infected with lentivirus of pLenti-puro vector-based Tet1 construct. […] Relative cell viability is shown. *, P<0.05; **, P<0.01, two-tailed t-test. Error bar indicates SD of triplicate experiments.
siRNAs were transfected into MONOMAC-6 cells with Cell Line Nucleofector Kit V following program T-037, using the Amaxa Nucleofector Technology (Amaxa Biosystems, Berlin, Germany). Experiments were performed 48 h after transfection. Retrovirus infection of mouse BM progenitor cells were conducted as described previously with some modifications. Briefly, retrovirus vectors were co-transfected with pCL-Eco packaging vector (IMGENEX, San Diego, Calif.) into HEK293T cells using Effectene Transfection Reagent (Qiagen, Valencia, Calif.) to produce retrovirus. […]

Data set [2] relates to MLL-AF9-induced AML. Briefly: MLL-AF9 AML secondary BMT mouse model. It counts as in vivo, mice. The conditions noted are these: for mice cured / median survival: 2.5 mg/kg i.p. once per day for 10 days; for median survival: control 49 days. The procedure:
FIG. 2. […] The secondary BMT recipient mice were transplanted with leukemic BM blast cells collected from primary MLL-AF9 AML mice. […] Kaplan-Meier curves are shown. The P values were determined by log-rank test. (b) Wright-Giemsa staining of mouse peripheral blood (PB) and BM, or hematoxylin and eosin (H&E) staining of mouse spleen and liver of the treated or control leukemic mice. (c,d) Tet1/2/3 gene expression levels (c) or Tet1 protein level (d) in BM blast cells of the treated or control leukemic mice. *, P<0.05, two-tailed t-test. Error bar indicates SD of triplicate experiments. […] The secondary BMT recipient mice were transplanted with leukemic BM blast cells collected from the primary AE9a-AML mice. […] Kaplan-Meier curves are shown. The P values were determined by log-rank test.
Secondary mouse BMT was carried out as described previously. […] For the “5+3” treatment, AraC (Cytarabine, Bedford Laboratories) and DNR (Daunorubicin, Sigma-Aldrich) were reconstituted with PBS, filtered, and stored in aliquots at −20° C. The “5+3” therapy regimen consists of five consecutive daily doses of 50 mg/kg AraC along with 3 mg/kg DNR daily during the first three days of treatment. Drugs were delivered by tail vein and intraperitoneal injection. Weights were taken daily during treatment and doses were recalculated to ensure the mice received a consistent dose of 50 mg/kg AraC and 3 mg/kg DNR every treatment.

Data set [3] is described as follows: Acute and long-term toxicity profiling in healthy mice. Format: in vivo, C57BL/6 mice. To be noted: for acute (24 hrs) or long-term (200 days) toxicity: 2.5 mg/kg i.p. once per day 10 days, body, spleen, liver weights, WBC, PB and BM lineages; for WBC: 2.5 mg/kg i.p. 10 days, normal range 1.8-10.7; for BA / EO: normal range 0.0-0.2; for MO: normal range 0.0-0.4; for NE: normal range 0.1-2.4; for LY: normal range 0.9-9.3; for RBC: normal range 6.36-9.42; for PLT: normal range 592-2972. The procedure:
FIG. 15. […] 24 hrs after the last administration, body weights (a), weights of spleens (b), livers (c), total PB WBC counts (d), BM Mac1^+Gr1^+ (e), Mac1^+Gr1^− (f), Mac1^−Gr1^+ (g), and c-Kit^+ (h) populations were analyzed.
FIG. 16. […] 200 days after the last administration, body weights (a), weights of spleens (b), livers (c), total PB WBC counts (d), BM Mac1^+Gr1^+ (e), Mac1^+Gr1^− (f), Mac1^−Gr1^+ (g), and c-Kit^+ (h) populations were analyzed.

[4] abbreviates: acute, 24 hrs post last administration.
Where [5] appears, read: long-term, 200 days post last administration.

For the compound `COc1cc(C(c2cc3c(cc2O)OCO3)N2CCCC2)cc(OC)c1OC` (stereo not shown) [NSC-370284, 6-(1-Pyrrolidinyl(3,4,5-trimethoxyphenyl)methyl)-1,3-benzodioxol-5-ol], in data set [1], the cell viability result was “remarkable repression of cell viability”. In addition, in data set [2], the mice cured amounted to 57% and the median survival is listed as above 200 days. In data set [3], the “acute (24 hrs) or long-term (200 days) toxicity” value was “no evidence of either acute or long-term toxicity”. For the same compound, in data set [3] (setting [4]), the WBC came out at 8.35 ± 2.34 K/μl, the BA was 0.05 ± 0.05 K/μl, the MO is recorded as 0.22 ± 0.14 K/μl and the NE is listed as 1.67 ± 0.21 K/μl. Besides, in data set [3] (setting [4]), the LY amounted to 6.74 ± 2.55 K/μl, the RBC stood at 8.55 ± 3.34 M/μl and the PLT worked out at 460.21 ± 42.42 K/μl. In data set [3] (setting [5]), this compound had a WBC of 10.34 ± 2.19 K/μl, a BA of 0.03 ± 0.02 K/μl, an EO of 0.11 ± 0.01 K/μl and an MO of 0.31 ± 0.03 K/μl. In data set [3] (setting [5]), this compound showed an NE of 2.26 ± 0.54 K/μl, an LY of 7.68 ± 1.55 K/μl, an RBC of 7.38 ± 1.7 M/μl and a PLT of 929.62 ± 154.61 K/μl.

As to `CC(C)(C)c1cc(C(c2cc3c(cc2O)OCO3)N2CCOCC2)cc(C(C)(C)C)c1O` (stereo not shown) [UC-514321, 6-{[4-Hydroxy-3,5-bis(2-methyl-2-propanyl)phenyl](4-morpholinyl)methyl}-1,3-benzodioxol-5-ol], the cell viability result in data set [1] is reported as “remarkable repression of cell viability”. In data set [2], this compound came in with a mice cured of 66.7% and a median survival above 200 days. For the same compound, the “prolongation of median survival” value in data set [2] (versus control, 2.5 mg/kg i.p. 10 days) is recorded as “over 3 folds”. For the same compound, the “acute (24 hrs) or long-term (200 days) toxicity” value in data set [3] is “no evidence of either acute or long-term toxicity”. In data set [3] (setting [4]), this compound gave a WBC of 8.64 ± 3.68 K/μl, a BA of 0.07 ± 0.05 K/μl, an EO of 0.14 ± 0.12 K/μl and an MO of 0.27 ± 0.1 K/μl. Further, in data set [3] (setting [4]), the NE turned out to be 1.94 ± 0.56 K/μl, the LY came to 6.54 ± 2.7 K/μl, the RBC was determined as 9.54 ± 0.74 M/μl and the PLT is reported as 559.43 ± 116.9 K/μl. In addition, in data set [3] (setting [5]), the WBC was 11.89 ± 1.64 K/μl, the BA came out at 0.07 ± 0.04 K/μl, the EO is 0.1 ± 0.01 K/μl and the MO turned out to be 0.25 ± 0.05 K/μl. Besides, in data set [3] (setting [5]), the NE is listed as 2.11 ± 0.44 K/μl, the LY amounted to 8.55 ± 1.18 K/μl, the RBC was 7.07 ± 0.42 M/μl and the PLT worked out at 681.56 ± 402.64 K/μl.
